Reference: patent US9051579B2, “Herbicide-tolerant plants through bypassing metabolic pathway” (Bayer S.A.S., priority 2000, dated 2015)

Assays:
Arabidopsis seeds = experiment: Germination of Arabidopsis seeds on MS medium with DKN, with or without homogentisate; format: in vivo
Method: 1 Murashige and Skoog medium (T. Murashige and F. Skoog, 1962. A revised medium for a rapid growth and bioassays with tobacco tissue culture. Physiol. Plant. 15, 473-479), control experiment for germination
2 MS medium plus DKN at a dose of 1 ppm
3 MS medium plus DKN at the same dose+homogentisate at a concentration of 5 mM.

HPP oxidase (HPPO) = experiment: HPP oxidase activity assay (colorimetric / HPLC), influence of added compounds; format: biochemical, Arthrobacter globiformis; conditions: 115 ppm
Text: The enzyme reaction is stopped by adding 2,4-dinitrophenylhydrazine (2,4-DNPH), in solution in 2 M HCl. The 2, 4-DNPH reacts with the ketone function in the alpha position of a carboxylic function (example: HPP). […] When the HPP is completely converted to 4-HPA during the enzyme reaction, the hydrazone cannot form, and the characteristic yellow color of 2,4-DHPA is therefore obtained in basic medium. If the HPP is not completely converted to 4-HPA during the enzyme reaction, the formation of hydrazone is possible. These hydrazones are brown in color in basic medium. A variation in color between these two extremes is obtained as a function of the amount of HPP consumed. The absorption measurements are carried out at 445 or 450 nm. In order to make this assay more easy to handle, we adapted it to the 96-well microplate format. The reaction mixture comprises GSH (900 μM); HPP (135 μM); TPP (1.8 mM); MgCl2 (4.5 mM); FAD (4 μM); potassium phosphate buffer (90 mM) pH 7.4. The mixture is kept on ice. 50 μL of the test fraction and 150 μL of reaction mixture are placed in each well. After 20 min at 30° C., the enzyme reaction is stopped with 13 μL of 2,4-DNPH solution (0.1% in 2 M HCl). The mixture is left to react for 20 min at ambient temperature. […] To prepare the standard range, reaction mixtures with varying concentrations of HPP are prepared. […]

[1] = medium 2: MS medium plus DKN at 1 ppm

Compound	germination and pigmentation of the plantlet (Arabidopsis seeds; [1])	survival of the plantlets (Arabidopsis seeds; [1])	germination and pigmentation of the plantlet (Arabidopsis seeds; medium 3: MS medium plus DKN 1 ppm + homogentisate 5 mM)	later development of the plants (Arabidopsis seeds; medium 3: MS medium plus DKN 1 ppm + homogentisate 5 mM, as homogentisate in the medium decreases)	inhibition of the HPPO (HPP oxidase (HPPO))
CS(=O)(=O)c1cc(C(F)(F)F)ccc1C(=O)C(C#N)C(=O)C1CC1 (centres unmarked) [DKN]	germination occurs, but the plantlet which emerges is white, the two cotyledons exhibiting no pigmentation	die in a few days	germination occurs normally, the cotyledons are clearly green	the first symptoms of bleaching appear and plant growth stops, they end up dying	–
CC(C)C1(C)N=C(c2ncccc2C(=O)O)NC1=O (centres unmarked) [imazapyr]	–	–	–	–	not inhibited
